Results published in BindingDB's records for doi:10.1021/jm010066k (The University of Newcastle, 2002).
Numbered stars: 1 amine (or outer) side, 2 acyl side, 3 side chain; on linkers, the order of the positions; unused ones are H or OH. Bridge positions count the residues as written; N and C are the ends. Square brackets hold non-standard residues; d marks the D form. Peptide text beside a SMILES is read from it. Adda = CO[C@@H](Cc1ccccc1)[C@@H](C)/C=C(C)/C=C/[C@H](N[*:1])[C@H](C)C(=O)[*:2]; X1 = CC(C)C[C@H](N[*:1])C(=O)C[C@@H](C(=O)O)[C@H](C)C(=O)[*:2]; NMeDha = C=C(NC)C(=O)O

assay: Inhibition of microcystin analogues to catalytic subunits of Serine/threonine protein phosphatase 2A (PP2Ac)

Structure (SMILES)	IC50 [nM]
CO[C@@H](Cc1ccccc1)[C@@H](C)/C=C(C)/C=C/[C@@H]1NC(=O)[C@H](C)NC(=O)[C@@H](C)[C@H](C(=O)O)CC(=O)[C@H](CC(C)C)NC(=O)[C@@H](C)NC(=O)CN(C2CCCCC2)C(=O)CC[C@H](C(=O)O)NC(=O)[C@H]1C [7-Cyclohexyl-25-isobutyl-15-(6-methoxy-3,5-dimethyl-7-phenyl-hepta-1,3-dienyl)-3,14,18,21-tetramethyl-2,5,8,13,17,20,24-heptaoxo-1,4,7,12,16,19hexaaza-cyclopentacosane-11,22-dicarboxylic acid]	1.5
C=C1C(=O)N[C@H](CN)C(=O)N[C@@H](CC(C)C)C(=O)C[C@@H](C(=O)O)[C@H](C)C(=O)N[C@@H](C)C(=O)N[C@@H](/C=C/C(C)=C/[C@H](C)[C@H](Cc2ccccc2)OC)[C@H](C)C(=O)N[C@@H](C(=O)O)CCC(=O)N1C [11,22-Dicarboxy-25-isobutyl-15-(6-methoxy-3,5-dimethyl-7-phenyl-hepta-1,3-dienyl)-7,14,18,21-tetramethyl-6-methylene-2,5,8,13,17,20,24-heptaoxo-1,4,7,12,16,19hexaaza-cyclopentacos-3-ylmethyl-ammonium]	9
C=C1C(=O)N[C@H](C)C(=O)N[C@@H](CC2CCCCC2)C(=O)C[C@@H](C(=O)O)[C@H](C)C(=O)N[C@@H](C)C(=O)N[C@@H](/C=C/C(C)=C/[C@H](C)[C@H](Cc2ccccc2)OC)[C@H](C)C(=O)N[C@@H](C(=O)O)CCC(=O)N1C [25-Cyclohexylmethyl-15-(6-methoxy-3,5-dimethyl-7-phenyl-hepta-1,3-dienyl)-3,7,14,18,21-pentamethyl-6-methylene-2,5,8,13,17,20,24-heptaoxo-1,4,7,12,16,19hexaaza-cyclopentacosane-11,22-dicarboxylic acid]	3.4
CO[C@@H](Cc1ccccc1)[C@@H](C)/C=C(C)/C=C/[C@@H]1NC(=O)[C@H](C)NC(=O)[C@@H](C)[C@H](C(=O)O)CC(=O)[C@H](CC(C)C)NC(=O)[C@@H](C)NC(=O)CN(C)C(=O)CC[C@H](C(=O)O)NC(=O)[C@H]1C [25-Isobutyl-15-(6-methoxy-3,5-dimethyl-7-phenyl-hepta-1,3-dienyl)-3,7,14,18,21-pentamethyl-2,5,8,13,17,20,24-heptaoxo-1,4,7,12,16,19hexaaza-cyclopentacosane-11,22-dicarboxylic acid]	1.5
C=C1C(=O)N[C@H](C)C(=O)N[C@@H](CC(C)C)C(=O)C[C@@H](C(=O)O)[C@H](C)C(=O)N[C@@H](C)C(=O)N[C@@H](/C=C/C(C)=C/[C@H](C)[C@H](Cc2ccccc2)OC)[C@H](C)C(=O)N[C@@H](C(=O)O)CCC(=O)N1C [25-Isobutyl-15-(6-methoxy-3,5-dimethyl-7-phenyl-hepta-1,3-dienyl)-3,7,14,18,21-pentamethyl-6-methylene-2,5,8,13,17,20,24-heptaoxo-1,4,7,12,16,19hexaaza-cyclopentacosane-11,22-dicarboxylic acid] ([NMeDha][dA][X1]A[Adda][dE]-OH; lactam N-6)	0.3
